Test results from patent US20240024290A1, “PHARMACEUTICAL COMPOSITIONS COMPRISING CANNABINOID AGONIST” (ARTELO BIOSCIENCES LIMITED, priority 2020, published 2024).
Entries after “also recorded” stand apart in the source; their conditions may differ.

Tests used:
endocannabinoid system = conditions: in vivo; cited from earlier work
[1] = Forced degradation study of the active substance (HPLC assay area %, sample observations); assay type: physicochemical
Method: HPLC Conditions • Instrument: Agilent 1100/1200 • Column: YMC Triart Phenyl, 4.6×150 mm. 3 μm particle size (ex-YMC P.N.TPH12S03-1546PTH) • Mobile Phase: A—10 mM Ammonium acetate pH 6.0 • B—Acetonitrile • Flow Rate: 1.0 ml·min-1 • Injection Volume: 5 μl • Detection: UV @ 220 nm • Column Temp: 30° C. • Post Run: 4 minutes
• Diluent: Acetonitrile:deionised water (1:1) • Standard Solution: Make up a solution of 0.2 mg/ml. This is to be made up fresh prior to use at T=3 and T=7 days.
Accurately weigh […] of the active substance into a 100 mL volumetric flask and dissolve in 50 mL of diluent. Dilute the resulting solution to volume with diluent and mix well.
Table 1 below details the different study tests performed. All solution samples are prepared and stored in sealed vials and heated samples are cooled to ambient prior to sampling to prevent evaporation. Analysis took place on days 3 and 7 after stressing initiation for solutions described for Tests 1-6 and once exposure was complete for samples described in Tests 7-10. Due to the low levels of degradation observed at 7 days, Tests 3, 4 and 5 were heated to 80° C. for a further 4 days and analysed, and Test 6 was analysed after a further 6 days.
The photostability samples were exposed to a total of 1.92 million lux hours and an integrated near-UV energy of 374.6 Whm^−2.

CCS(=O)(=O)Nc1ccc2c(c1)nc(C(C)(C)C)n2CC1CCC(F)(F)CC1 [Compound I, N-(2-(tert-butyl)-1-((4,4-difluorocyclohexyl)methyl)-1H-benzimidazol-5-yl)ethanesulfonamide]
Appetite stimulation (endocannabinoid system): stimulate appetite in a dose-dependent manner | CNS-psychoactive effects (endocannabinoid system): does not cause CNS-psychoactive effects | Sample observations ([1]; Test 1 Control (solution, ambient temperature), over study period, listed as active substance): Clear colourless solution; also recorded: No change over study period | Assay of active substance (area %) ([1]; Test 1 solution control, 0 days): 99.40 area % | Assay of active substance (area %) ([1]; Test 1 solution control, 3 days): 99.42 area % | Assay of active substance (area %) ([1]; Test 1 solution control, 7 days): 99.30 area % | Assay of active substance (area %) ([1]; Test 1 solution control, 11 days): 99.39 area % | Sample observations ([1]; Test 2 Solid state 100° C., over study period, listed as active substance): orange solid over study period. | Assay of active substance (area %) ([1]; Test 2 solid state at 100° C., 3 days): 99.43 area % | Assay of active substance (area %) ([1]; Test 2 solid state at 100° C., 7 days): 99.40 area % | Sample observations ([1]; Test 3 Acid 60° C., over study period, listed as active substance): Clear colourless solution; also recorded: No change over study period | Sample observations ([1]; Test 3 Acid (1M, ambient), over study period, listed as active substance): No change over study period; also recorded: Clear colourless solution | Assay of active substance (area %) ([1]; Test 3 acid (1M) ambient temperature, 3 days): 99.40 area % | Assay of active substance (area %) ([1]; Test 3 acid (1M) ambient temperature, 7 days): 99.41 area % | Assay of active substance (area %) ([1]; Test 3 acid (1M) at 60° C. until day 7, 80° C. until day 11, 11 days): 98.87 area % | Assay of active substance (area %) ([1]; Test 3 acid (1M) at 60° C., 3 days): 99.37 area % | Assay of active substance (area %) ([1]; Test 3 acid (1M) at 60° C., 7 days): 99.35 area % | Sample observations ([1]; Test 4 Base 40° C. (so in the source), over study period, listed as active substance): Clear colourless solution; also recorded: No change over study period | Sample observations ([1]; Test 4 Base (0.5M, ambient), over study period, listed as active substance): Clear colourless solution; also recorded: No change over study period | Assay of active substance (area %) ([1]; Test 4 base (0.5M) ambient temperature, 3 days): 99.40 area % | Assay of active substance (area %) ([1]; Test 4 base (0.5M) ambient temperature, 7 days): 99.37 area % | Assay of active substance (area %) ([1]; Test 4 base (0.5M) at 60° C. until day 7, 80° C. until day 11, 11 days): 99.16 area % | Assay of active substance (area %) ([1]; Test 4 base (0.5M) at 60° C., 3 days): 99.34 area % | Assay of active substance (area %) ([1]; Test 4 base (0.5M) at 60° C., 7 days): 99.32 area % | Sample observations ([1]; Test 5 Heat 60° C. (solution), over study period, listed as active substance): Clear colourless solution; also recorded: No change over study period | Assay of active substance (area %) ([1]; Test 5 solution at 60° C. until day 7, 80° C. until day 11, 11 days): 98.00 area % | Assay of active substance (area %) ([1]; Test 5 solution at 60° C., 3 days): 99.13 area % | Assay of active substance (area %) ([1]; Test 5 solution at 60° C., 7 days): 99.34 area % | Sample observations ([1]; Test 6 Peroxide (1.5%), over study period, listed as active substance): Clear colourless solution; also recorded: No change over study period | Assay of active substance (area %) ([1]; Test 6 peroxide (1.5%), 3 days): 98.50 area % | Assay of active substance (area %) ([1]; Test 6 peroxide (1.5%), 7 days): 97.75 area % | Assay of active substance (area %) ([1]; Test 6 peroxide (1.5%), 13 days): 96.58 area % | Sample observations ([1]; Test 7 Photostability (Solution Control), listed as active substance): Clear colourless solution; also recorded: No change over study period | Assay of active substance (area %) ([1]; Test 7 photocontrol solution): 99.40 area % | Assay of active substance (area %) ([1]; Test 8 photo treated solution (1.92 million lux hours, 374.6 Whm^-2 near-UV)): 74.53 area % | Sample observations ([1]; Test 9 Photostability (Solid Control)): Off white solid. No change over study period. | Assay of active substance (area %) ([1]; Test 9 photocontrol solid): 99.40 area % | Sample observations ([1]; Test 10 Photostability (Solid Treated), listed as active substance): orange solid over study period. | Assay of active substance (area %) ([1]; Test 10 phototreated solid (1.92 million lux hours, 374.6 Whm^-2 near-UV)): 99.31 area % | Forced degradation outcome ([1]; as a solution under photostability conditions): Major degradation | Forced degradation outcome ([1]; peroxide conditions, 1M acid and 0.5M base extended to 80° C., solution heated to 80° C.): slight degradation | Forced degradation outcome ([1]; solution at room temperature, solid at 100° C., 1M acid and 0.5M base at room temperature and 60° C., solution at 60° C., photostability as a solid): stable to degradation
